Legend:
[1] = Aqueous solubility of solvent A at 20° C.; type: physicochemical; details: for Aqueous solubility: 20° C.
[2] = Log distribution coefficient of solvent A; type: physicochemical

Aqueous solubility [1] [% by mass]	Log distribution coefficient [2]	aqueous solubility of the solvent A ([1]; solvent A of ink 1, rounded value) [%]	SMILES
0.1	2.4	–	OCCCCc1ccccc1 [4-Phenyl-1-butanol]
2.2	–	–	OCCc1ccccc1 [Phenethyl alcohol]
4.29	1.03	–	OCc1ccccc1 [Benzyl alcohol]

Continued, compound first:

SMILES	Aqueous solubility [1] [% by mass]	Log distribution coefficient [2]	aqueous solubility of the solvent A ([1]; solvent A of ink 1, rounded value) [%]
CC(O)Cc1ccccc1 (centres unmarked) [1-Phenyl-2-propanol]	0.58	1.71	–
OCCCc1ccccc1 [3-Phenyl-1-propanol]	0.568	1.88	–
CC(O)COc1ccccc1 (centres unmarked) [1-Phenoxy-2-propanol]	1.1	1.51	–
OCCOc1ccccc1 [2-Phenoxyethanol]	2.67	1.16	2.7
